Assay results as given in US20250221936A1, “ENGINEERED HEMICHANNELS, ENGINEERED VESICLES, AND USES THEREOF” (VIRGINIA TECH INTELLECTUAL PROPERTIES, INC., priority 2018, published 2025).
“Also recorded” adds a separate entry of the source.

Tests used:
[1] = molecular target: T1, Cx43 CT (amino acids 255 to 382) (Rattus norvegicus, UniProt P08050); experiment: Surface plasmon resonance, Cx43 CT analyte; format: binding; conditions: biotin-peptide immobilized on streptavidin chip; analyte 0.5 to 15 μM
T1 construct: Cx43-CT: amino acids 255 to 382; GST (N, cleaved yes); made in house; host or cells: E. coli BL21
T1 sequence (P08050 255-382): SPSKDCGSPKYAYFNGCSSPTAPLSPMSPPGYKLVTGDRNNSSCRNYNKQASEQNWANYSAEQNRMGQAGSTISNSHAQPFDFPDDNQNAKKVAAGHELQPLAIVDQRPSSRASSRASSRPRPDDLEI
Procedure: Efficacy of the interaction of each alpha CT1 variant with Cx43 CT or Cx43 CT-KK/QQ was tested using surface plasmon resonance (SPR) as described previously 20. In brief, SPR experiments were performed using a Biacore T200 (GE Healthcare). Equal amounts (response units/RU) of biotin-alpha CT1 variants were immobilized on each flow cell of a streptavidin-coated sensor chip (Biacore Inc) using immobilization buffer (in mM: 10 HEPES, 1 EDTA, 100 NaCl, 0.005% Tween-20) at pH 7.4. Measurements with wild-type (wt) Cx43 CT and mutant Cx43 CT-KK/QQ analytes were done in running buffer (in mM: 10 HEPES, 100 NaCl, pH 7.4) at a flow rate of 30 μl/min. Binding of analytes were verified at different concentrations, in random order (injection volume 120 μl). Interacting proteins were then unbound by injection of […] regeneration buffer (50 mM NaOH and 1 M NaCl) at a flow rate of 10 μl/min. Background levels were obtained from a reference cell containing a biotin-control peptide in which the reversed sequence of the last 9 amino acids of Cx43 was fused to biotin-antennapedia. The RU values obtained with biotin-control peptide were subtracted from the RU values obtained with the different biotin-alphaCT1 variants (wild-type or mutant) to generate the different response curves.

ZO-1 PDZ2 = molecular target: T2, ZO-1 PDZ2 (Homo sapiens, UniProt Q07157); experiment: EDC cross-linking to GST fusion ZO-1 PDZ domains; format: binding; conditions: 5, 25 and 50 μM
T2 construct: the second of the three PDZ (PDZ2) domains of ZO-1; made in house; host or cells: E. coli BL21
T2 sequence (Q07157 186-264 limits assumed): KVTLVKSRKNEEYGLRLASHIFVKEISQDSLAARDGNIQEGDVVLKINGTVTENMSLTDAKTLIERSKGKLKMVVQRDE
Procedure: To characterize the interaction between the Cx43 CT substrate and peptides, the in vitro kinase assay was performed as above with modification and the constituents then subjected to a cross-linking reaction. The assay buffer used was 20 mM 3-(N-morpholino) propanesulfonic acid (MOPS), pH 7.2. All other reagents present in the kinase reaction were maintained as described above. The reaction was allowed to proceed at 37° C. for 15 minutes. Afterwards, the carbodiimide crosslinker 1-Ethyl-3-(3-dimethylaminopropyl) carbodiimide HCl (EDC) (Thermo, 22980) was added to each solution for a final concentration of 20 mM. The solution was allowed to cross-link for one hour at room temperature. The reaction was stopped by the addition of 4×LDS loading buffer, boiled for 5 minutes and subsequently separated by PAGE. The resulting gel was stained in Coomassie brilliant blue (Sigma, B0770) for two hours and destained in a solution of 4% methanol 7% acetic acid overnight. Gel bands were subsequently excised for mass spectrometric analysis. For the direct interaction between protein and peptides, PBS, pH 7.5 was used as the coupling buffer. The protein (50 μg/ml) and peptide (25 μM) were allowed to react at room temperature for one hour before EDAC was added to the reaction mixture. The reaction was Western blotted for Cx43, GST or NeutroAvidin.

[2] = test system: Neonatal cardiac fibroblasts (NHFs); experiment: Collagen synthesis by neonatal cardiac fibroblasts, Western blotting; format: cell-based, rat
Excerpt: Isolation and treatment of Neonatal Cardiac Fibroblasts with Cx43 based peptides (peptides used included ACT1, JM1, JM2, Antennapedia [ANT], reverse ACT1 [Rev], poly Arginine [poly r]). Said peptides with and without internalization vectors can be loaded into the provided EVs and can elicit results similar to those observed for naked peptide as follows. Neonatal cardiac fibroblasts (NHFs) were isolated from 3-4 day old rat hearts by collagenase digestion (100 U/mL) and differential attachment as previously described (Borg et ah, 1984). All cells were maintained in Dulbecco's Modified Eagle Medium (DMEM) supplemented with 10% Fetal Bovine Serum and 100 U/mL penicillin G and 100 μg/mL streptomycin and used prior to passage four. For experiments, 40,000 NHFs were plated into the wells of a 24-well tissue culture plate and grown for 24-48 hours. On the day of treatment, media was removed from each well and replaced with fresh media containing 50 μg/mL L-ascorbic acid-2-phosphate; Sigma Chemical Co., St. Louis, MO). The appropriate volume of each peptide (resuspended in sterile, deionized 18 MQ resistivity water) was added to achieve the desired final concentration (30, 90, 180 µM peptide concentrations were tested). Culture plates were incubated overnight in a 37° C. incubator with 5% C02.
Protein Isolation and Examination of Collagen Synthesis by Western Blotting. Conditioned culture media was collected from each well and stored at −20° C. for analysis of soluble collagen. Cellular protein, including insoluble collagen and collagen still within the NHFs, were isolated by adding 100-200 μL, of cell lysis buffer (0.01 M Tris, pH 7.4, 0.001 M Sodium Orthovanadate, 1% sodium dodecylsulfate [SDS]) to each well and incubating 10 minutes at room temperature. Prior to addition, cell lysis buffer was warmed to facilitate solubilization of SDS and 100 u L of Halt protease inhibitor (Pierce Biotechnology, Rockford, IL) was added per 10 mL buffer to be used. After incubation, the well bottoms were scraped and liquid transferred to a microcentrifuge tube for storage at −20° C. Protein concentrations of cell lysates were determined using a Micro BCA assay (Pierce). SDS-PAGE samples were prepared by combining either 10 μg of cell lysate or 30 μL of conditioned media with XT loading buffer (BioRad, Hercules, CA), dithiothreitol and boiled for five minutes. Samples were loaded onto 3-8% Tris-Acetate Criterion X T gels (BioRad, Hercules, CA) and proteins separated at 140V. After electrophoresis, proteins were transferred onto […] nitrocellulose membranes (BioRad) overnight at room temperature (Transfer buffer: 25 mM Tris, 192 mM Glycine, 20% Methanol, 0.01% SDS). The presence of collagen was determined by probing the membranes with a rabbit anti-mouse collagen type I antibody (MD Biosciences) at 1:20,000 dilution in blocking buffer (5% milk in Tris-buffered saline) followed by a goat anti-rabbit IgG horseradish peroxidase conjugated antibody at 1:100,000 (Southern Biotech Associates) and detection with Pierce SuperSignal Femto West detection reagent (Pierce). To assess the activity of JM1 and JM2 peptides with respect to collagen production and their potential in mediating wound healing, cardiac fibroblasts were treated with these two peptides and their effectiveness compared to that for the previous described Cx43 peptide ACT1. NHFs were treated with various concentrations of JM1, JM2, ACT1, and ANT (Antennapedia) peptides, vehicle (water) or left untreated and the production of collagen both in the culture media and cell-associated collagen assessed by western blotting. […] To evaluate the impact of the poly-Arginine (poly-r)N-terminal sequence on JM1 and Jm2 activity, NHF cells were treated with a poly-r peptide.

Sequence: RQPKIWFPNRRKPWKK RPRPAALAI (RQPKIWFPNRRKPWKKRPRPAALAI) [M1 AALAI]
- SPR binding to Cx43 CT [1]: loss of Cx43 CT binding competence

Sequence: RQPKIWFPNRRKPWKKRPRPDDLAI [M3 DDLAI]
- SPR binding to Cx43 CT [1]: abrogated peptide interaction with Cx43 CT

Sequence: RQPKIWFPNRRKPWKKRPRPDDLE [alpha CT1-I]
- interaction with ZO-1 PDZ2 (ZO-1 PDZ2): incompetent to interact; also recorded: abrogates interaction with ZO-1 PDZ2

Sequence: RQPKIWFPNRRKPWKKRPRPDDLEI [alpha CT1]
- mature type I collagen in conditioned media ([2]; 30, 90, 180 µM): dose-dependent reduction in the secretion of mature, fully processed collagen
- interaction with ZO-1 PDZ2 (ZO-1 PDZ2): selectivity of alpha CT1 for ZO-1 PDZ2

Sequence: VFFKGVKDRVKGRSD [JM2]
- mature type I collagen in conditioned media ([2]; 180 μM): no mature type I collagen was detected
- mature type I collagen in conditioned media ([2]; 30, 90, 180 µM): dose-dependent decrease in the production of mature, type I collagen
- collagen produced versus poly-r peptide ([2]; about 90 μM): less than half of that produced by cells treated with the poly-r peptide
- mature type I collagen in cell lysate ([2]; versus ACT1 peptide): more profound reduction in the amount of mature type I collagen
